Assays:
Assay type in all cases: in vivo
[1] = test system: larvae of white-backed planthopper (Sogatella furcifera Horvath); test: Test Example 2: insecticidal activity against larvae of white-backed planthopper; details: 168 h, 400 ppm, first-instar larvae, 25° C., seven days after treatment, read-out: Mortality
Procedure: Insecticidal activity against larvae of white-backed planthopper (Sogatella furcifera Horvath).
Testing method: Five rice seedlings of the 1.5 leaf age were dipped in a test composition of 400 ppm concentration for 30 seconds. After air-drying, the seedlings were placed in a glass tube containing 1 ml of water and infested with five first-instar larvae of white-backed planthopper. The glass tube was left standing in a constant temperature cabinet at 25° C. and seven days after the treatment, dead-and-survival was observed. Mortality was calculated from the results of 3-replication test.

[2] = test system: larvae of green rice leafhopper (Nephotettix cincticeps Uhler); test: Test Example 5: activity against larvae of green rice leafhopper; details: 168 h, 400 ppm, second-instar larvae, 25° C., seven days after treatment, read-out: Mortality
Procedure: Activity against larvae of green rice leafhopper (Nephotettix cincticeps Uhler).
Testing method: Five rice seedlings of the 1.5 leaf age were dipped in a test composition of 400 ppm concentration for 30 seconds. After air-drying, the seedlings were placed in a glass tube containing 1 ml of water and infested with five second-instar larvae of green rice leafhopper. The glass tube was left standing in a constant temperature cabinet at 25° C. Seven days after the treatment, dead-and-survivalwas inspected to calculate the mortality (3-replication test).

[3] = test system: larvae of brown planthopper (Nilaparvata lugens Stahl); test: Test Example 1: insecticidal activity against larvae of brown planthopper; details: third-instar larvae, 25° C.
Summary of the method: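 Rice seedlings at 1.5-leaf stage were dipped for 30 s in a 400 ppm test composition, air-dried, and infested with third-instar N. lugens larvae. After holding at 25 °C, mortality was scored 5 or 7 days post-treatment from three replicates.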

[4] = test system: cirrus red mite (Panonychus citri McGregor); test: Test Example 4: activity to citrus red mite (Rothamstead method); set-up: concentration or dose not given beside the values; details: two days after treatment, 25° C.; 2880 min
Procedure: Activity to cirrus red mite (Panonychus citri McGregor).
Testing method: The test was performed by Rothamstead method. A test composition was sprayed by means of a spray gun over grapefruit leaves infested with citrus red mites. After air-drying the grapefruit was left standing in a constant temperature cabinet at 25° C. Two days after the treatment, the number of survived mites was counted to calculate the mortality.

[5] = test system: two-spotted spider mite (Tetranychus urticae Koch); test: Test Example 3: activity to two-spotted spider mite
Excerpt: Activity to two-spotted spider mite (Tetranychus urticae Koch).
Testing method: Two-spotted spider mites were set free on the pot-planted soybean in a greenhouse. On the next day, a test composition of 1,000 ppm concentration was sprayed over the soybean by means of a spray gun. Two days or five days after the treatment, dead-and-survival was inspected to calculate the mortality.

[6] = 48 h, 1,000 ppm, 2 days after treatment

## CCN=C1SCN(C(C)(C)C)C(=O)N1c1ccccc1C [Compound 80, 2-Ethylimino-3-o-tolyl-5-t-butyl-tetrahydro-1,3,5-thiadiazin-4-one]
[1]
  mortality at 400 ppm: 100%
[2]
  mortality at 400 ppm: 50%
[3]; 168 h, 7 days after treatment
  mortality at 400 ppm: 100%
[4]
  Mortality: 100%
[5]; [6]
  mortality at 1000 ppm: 80%

## CCC(C)N=C1SCN(C(C)(C)C)C(=O)N1C (stereo not drawn) [Compound 35]
[1]
  mortality at 400 ppm: 100%
[2]
  mortality at 400 ppm: 50%
[3]; 168 h, 7 days after treatment
  mortality at 400 ppm: 100%
[4]
  Mortality: 100%
[5]; [6]
  mortality at 1000 ppm: 100%

## CCOc1ccc(N2CSC(=NC(C)(C)C)N(C(C)CC)C2=O)cc1 (stereo not drawn) [Compound 368, 2-t-Butylimino-3-s-butyl-5-(4-ethoxyphenyl)tetrahydro-1,3,5-thiadiazin-4-one]
[3]; 120 h, 5 days after treatment
  mortality at 400 ppm: 80%
[4]
  Mortality: 100%
[5]; 120 h, 1,000 ppm, 5 days after treatment
  mortality at 1000 ppm: 100%

## CCCCCCCCN1CSC(=NC(C)C)N(C)C1=O [Compound 65]
[1]
  mortality at 400 ppm: 100%
[2]
  mortality at 400 ppm: 50%
[3]; 168 h, 7 days after treatment
  mortality at 400 ppm: 100%
[4]
  Mortality: 100%
[5]; [6]
  mortality at 1000 ppm: 100%

## CCCN=C1SCN(Cc2ccccc2)C(=O)N1CCC [Compound 56]
[1]
  mortality at 400 ppm: 80%
[2]
  mortality at 400 ppm: 50%
[3]; 168 h, 7 days after treatment
  mortality at 400 ppm: 80%
[4]
  Mortality: 100%
[5]; [6]
  mortality at 1000 ppm: 100%

## CC(C)N=C1SCN(C(C)C)C(=O)N1C [Compound 18, 2-Isopropylimino-3-methyl-5-isopropyl-tetrahydro-1,3,5-thiadiazin-4-one]
[1]
  mortality at 400 ppm: 100%
[2]
  mortality at 400 ppm: 100%
[3]; 168 h, 7 days after treatment
  mortality at 400 ppm: 100%
[4]
  Mortality: 100%
[5]; [6]
  mortality at 1000 ppm: 80%

## Cc1ccc(N=C2SCN(C(C)(C)C)C(=O)N2C)cc1 [Compound 72, 2-p-Tolylimino-3-methyl-5-t-butyl-tetrahydro-1,3,5-thiadiazin-4-one]
[1]
  mortality at 400 ppm: 100%
[2]
  mortality at 400 ppm: 80%
[3]; 168 h, 7 days after treatment
  mortality at 400 ppm: 80%
[4]
  Mortality: 80%
[5]; [6]
  mortality at 1000 ppm: 100%

## CCN=C1SCN(C(C)C)C(=O)N1CC [Compound 23]
[1]
  mortality at 400 ppm: 100%
[2]
  mortality at 400 ppm: 80%
[3]; 168 h, 7 days after treatment
  mortality at 400 ppm: 100%
[4]
  Mortality: 80%
[5]; [6]
  mortality at 1000 ppm: 100%

## CC(C)N=C1SCN(C(C)(C)CC(C)(C)C)C(=O)N1C [Compound 59]
[1]
  mortality at 400 ppm: 100%
[2]
  mortality at 400 ppm: 100%
[3]; 168 h, 7 days after treatment
  mortality at 400 ppm: 100%
[4]
  Mortality: 100%
[5]; [6]
  mortality at 1000 ppm: 100%

## CCN1CSC(=NC(C)C)N(C(C)C)C1=O [Compound 8]
[1]
  mortality at 400 ppm: 100%
[2]
  mortality at 400 ppm: 80%
[3]; 168 h, 7 days after treatment
  mortality at 400 ppm: 100%
[4]
  Mortality: 80%
[5]; [6]
  mortality at 1000 ppm: 100%

## CCN1C(=O)N(C(C)(C)C)CSC1=NC(C)(C)C [Compound 42]
[1]
  mortality at 400 ppm: 100%
[2]
  mortality at 400 ppm: 80%
[3]; 168 h, 7 days after treatment
  mortality at 400 ppm: 100%
[4]
  Mortality: 100%
[5]; [6]
  mortality at 1000 ppm: 100%

## CCCCCCN1CSC(=NC(C)C)N(C(C)C)C1=O [Compound 51]
[1]
  mortality at 400 ppm: 100%
[2]
  mortality at 400 ppm: 50%
[3]; 168 h, 7 days after treatment
  mortality at 400 ppm: 100%
[4]
  Mortality: 50%
[5]; [6]
  mortality at 1000 ppm: 100%

## CN=C1SCN(C(C)(C)C)C(=O)N1C [Compound 31, 2-Methylimino-3-methyl-5-t-butyl-tetrahydro-1,3,5-thiadiazin-4-one]
[1]
  mortality at 400 ppm: 100%
[2]
  mortality at 400 ppm: 50%
[3]; 168 h, 7 days after treatment
  mortality at 400 ppm: 80%
[4]
  Mortality: 100%
[5]; [6]
  mortality at 1000 ppm: 100%

## CN1C(=O)N(C2CCCCC2)CSC1=NC(C)(C)C [Compound 53]
[1]
  mortality at 400 ppm: 80%
[2]
  mortality at 400 ppm: 50%
[3]; 168 h, 7 days after treatment
  mortality at 400 ppm: 80%
[4]
  Mortality: 100%
[5]; [6]
  mortality at 1000 ppm: 100%

## CN=C1SCN(C(C)(C)C)C(=O)N1c1ccccc1 [Compound 69]
[1]
  mortality at 400 ppm: 100%
[2]
  mortality at 400 ppm: 100%
[3]; 168 h, 7 days after treatment
  mortality at 400 ppm: 100%
[4]
  Mortality: 80%
[5]; [6]
  mortality at 1000 ppm: 100%

## CC(C)N=C1SCN(C(C)(C)C)C(=O)N1c1ccccc1 [Compound 75]
[1]
  mortality at 400 ppm: 100%
[2]
  mortality at 400 ppm: 50%
[3]; 168 h, 7 days after treatment
  mortality at 400 ppm: 100%
[4]
  Mortality: 50%
[5]; [6]
  mortality at 1000 ppm: 80%

Reference: patent US4159328A, “Tetrahydro-1,3,5-thiadiazin-4-one derivative” (Nihon Nohyaku Co., Ltd., priority 1977, dated 1979)
